The values below come from patent publication US11203615B2, “Cancer treatment drug” (NATIONAL UNIVERSITY CORPORATION HOKKAIDO UNIVERSITY, priority 2017, dated 2021).

Residues, ends and D or L forms follow the SMILES beside them.

Data set [1] addresses T1, C16orf74 protein dimer (Homo sapiens, UniProt Q96GX8). In words: Inhibition of dimer formation of C16orf74 protein in human pancreatic cancer cells and NHDFs (FIG. 3). The arrangement: PK-1 and PK-9 (C16orf14 high expression) are compared to Panc1 and Miapaca2 (low expression); endogenous in cells; host or cells: PK-1, PK-9, Panc-1, Miapaca-2, NHDF. The data set is classed as cell-based. On the procedure:
The same experiment as the above (3) was conducted by using the peptide RRRRRRRRRRR-GGG-MGLKMSCLKGFQMCV (SEQ ID NO: 4) (represented as 11R-C16orf74-DB in FIG. 3(a)), the peptide RRRRRRRRRRR-GGG-MGLKMSALKGFQMAV (SEQ ID NO: 7) (represented as 11R-C16orf74 C7A-C14A in FIG. 3(b)), and the peptide RRRRRRRRRRR-GGG-MGLKMAAAKGFQAAA (SEQ ID NO: 8) (represented as 11R-C16orf74-6-8A-13-15A in FIG. 3(c)) with different concentrations to examine inhibition of the dimer formation of C16orf74 protein. For the cells, four types of human pancreatic cancer cells (PK-1, PK-9, Panc-1, Miapaca-2) and normal human dermal fibroblasts (NHDFs) were used. The results are shown in FIGS. 3(a), 3(b), and 3(c), which are 24 hour WST assays in which PK-1 and PK-9 (C16orf14 high expression) are compared to Panc1 and Miapaca2 (low expression). A p-value of p<0.05 was obtained at 30 μM.

For data set [2], the system named is Human pancreatic cancer cells (PK-9). Kind of data set: Tumor growth in nude mice with PK-9 cells transplanted on the back, intraperitoneal administration. The data set is classed as in vivo, nude mouse. To be noted: i.p. five times per week, day 7 to day 35 after transplantation. As for the experimental part:
Human pancreatic cancer cells (PK-9) were transplanted to the back of each nude mouse (Balb/cA Jcl nu/nu mice, female, distributor: CLEA Japan, Inc.). The peptide of the present invention RRRRRRRRRRR-GGG-MGLKMSCLKGFQMCV (SEQ ID NO: 4), the peptide RRRRRRRRRRR-GGG-MGLKMAAAKGFQAAA (SEQ ID NO: 8), or PBS was intraperitoneally administered five times per week from day 7 to day 35 after the transplantation. During this period, body weight and tumor volume of the animals were measured, and fluorescence images were taken. On day 35 after the transplantation, tumor was resected, and the weight was measured. […] The mean tumor weight was approximately 50 mg for the group with administration of the peptide of the present invention (represented as DB in FIG. 6), and, by contrast, approximately 100 mg to 110 mg for the other two groups.

Data set [3] concerns the target T1, C16orf74 protein dimer. Kind of data set: Inhibition of dimer formation of C16orf74 protein, pull-down assay in cotransfected HEK293T cells. The data set is classed as cell-based. To be noted: 40 μM peptide, 24 hours. As for the experimental part: Pull-down assay was used for this verification. HEK293T cells were cotransfected with a vector to express a protein of Flag-tagged C16orf74 protein (pCAGGS-C16orf74-3×Flag) and a vector to express a protein of HA-tagged C16orf74 protein (pCAGGS-C16orf74-HA), and 24 hours thereafter a cell lysate was obtained and immunoprecipitation was carried out with agarose beads with an HA antibody attached thereto. The resulting immunoprecipitate was subjected to electrophoresis, and blotted with a Flag antibody. Experiment was conducted in three parallel systems. In the figure, MOCK represents a case that empty vectors of pCAGGS were provided with a Flag tag and an HA tag and HEK293T cells were cotransfected therewith. A band of the Flag-tagged C16orf74 protein was found at an intended level ([…]).
HEK293T cells were transfected with pCAGGS-C16orf74-3×Flag and pCAGGS-C16orf74-HA, and cultured in the presence and absence of 40 μM of the peptide RRRRRRRRR-GGG-MGLKMSCLKGFQMCV (SEQ ID NO: 6) for 24 hours, and thereafter a band of the dimer was detected in the same manner as descried in (1).

The test system of data set [4] is PK-9 cells expressing luciferase (PK-9-td Tomato-luc2). In words: Tumor survival and nodulation in nude mice with peritoneally disseminated PK-9-td Tomato-luc2 cells. The data set is classed as in vivo. Conditions: 1 mg/kg/mouse five times per week, day 0 to day 35; imaging days 3-35. As for the experimental part: PK-9 cells expressing luciferase (PK-9-td Tomato-luc2) were intraperitoneally injected into each nude mouse (Balb/cA Jcl nu/nu mice, female, distributor: CLEA Japan, Inc.). During a period from the day of the peritoneal dissemination to day 35, the peptide of the present invention RRRRRRRRRRR-GGG-MGLKMSCLKGFQMCV (SEQ ID NO: 4), the peptide RRRRRRRRRRR-GGG-MGLKMAAAKGFQAAA (SEQ ID NO: 8), or PBS was injected into the subcutaneous tissue in the vicinity of tumor five times per week (1 mg/kg/mouse). On days 3, 7, 14, 21, 28, and 35 after the peritoneal dissemination, tumor was imaged. The number of nodules was counted at the end of the peptide administration period.

A further data set has as its system PK-9 cells. In words: Tumor growth in nude mice with subcutaneously injected PK-9 cells, peritumoral subcutaneous injection. The data set is classed as in vivo. Conditions: 10 mg/kg/mouse s.c. near tumor five times per week, 3 weeks. On the procedure: PK-9 cells were injected into the back of each nude mouse (Balb/cA Jcl nu/nu mice, female, distributor: CLEA Japan, Inc.). Two weeks after the injection, the peptide of the present invention RRRRRRRRRRR-GGG-MGLKMSCLKGFQMCV (SEQ ID NO: 4), the peptide RRRRRRRRRRR-GGG-MGLKMAAAKGFQAAA (SEQ ID NO: 8), or PBS was injected into the subcutaneous tissue in the vicinity of tumor five times per week (10 mg/kg/mouse). The administration period was 3 weeks. At the end of the administration period, tumor was resected and the tumor weight was measured. […] The mean tumor weight of the group with administration of the peptide of the present invention (SEQ ID NO: 4) was approximately 250 mg (group 11R-DB in FIG. 8).

T1 sequence (Q96GX8 whole entry): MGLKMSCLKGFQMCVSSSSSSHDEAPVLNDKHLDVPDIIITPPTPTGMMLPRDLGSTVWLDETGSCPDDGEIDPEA

In general, inhibition refers to how much of the control response was suppressed. The low end stands for little suppression, the high end for strong suppression. For the molecule `CSCC[C@H](NC(=O)CNC(=O)CNC(=O)CNC(=O)[C@H](CCCNC(=N)N)NC(=O)[C@H](CCCNC(=N)N)NC(=O)[C@H](CCCNC(=N)N)NC(=O)[C@H](CCCNC(=N)N)NC(=O)[C@H](CCCNC(=N)N)NC(=O)[C@H](CCCNC(=N)N)NC(=O)[C@H](CCCNC(=N)N)NC(=O)[C@H](CCCNC(=N)N)NC(=O)[C@H](CCCNC(=N)N)NC(=O)[C@H](CCCNC(=N)N)NC(=O)[C@@H](N)CCCNC(=N)N)C(=O)NCC(=O)N[C@@H](CC(C)C)C(=O)N[C@@H](CCCCN)C(=O)N[C@@H](CCSC)C(=O)N[C@@H](CO)C(=O)N[C@@H](CS)C(=O)N[C@@H](CC(C)C)C(=O)N[C@@H](CCCCN)C(=O)NCC(=O)N[C@@H](Cc1ccccc1)C(=O)N[C@@H](CCC(N)=O)C(=O)N[C@@H](CCSC)C(=O)N[C@@H](CS)C(=O)N[C@H](C(=O)O)C(C)C` [SEQ ID NO: 4, RRRRRRRRRRR-GGG-MGLKMSCLKGFQMCV] (H-RRRRRRRRRRRGGGMGLKMSCLKGFQMCV-OH), the inhibition at 40 µM is not below 60% against C16orf74 protein dimer [1] (MIA PaCa-2, Miapaca2 cells) and not below 60% against C16orf74 protein dimer [1] (PANC-1, Panc1 cells). Besides, the inhibition at 30 µM on C16orf74 protein dimer [1] (PK9, PK-9 cells) is approximately 60%; against C16orf74 protein dimer [1] (PK-1 cells), approximately 60%. In data set [2], the “body weight of the animals” value is “exhibited a higher increasing tendency than the other administration groups”.

Consider “RRRRRRRRR-GGG-MGLKMSCLKGFQMCV (RRRRRRRRRGGGMGLKMSCLKGFQMCV; fusion peptide) [SEQ ID NO: 6, C16orf74 N-terminal 15 amino acids bonded to 9-arginine signal via a GGG tag]”, for which the “inhibition of dimer formation of C16orf74 protein (band of the dimer)” value in the data set with C16orf74 protein dimer [3] is given as “the dimer formation was inhibited”.

“RRRRRRRRRRR-GGG-MGLKMAAAKGFQAAA (RRRRRRRRRRRGGGMGLKMAAAKGFQAAA; fusion peptide) [SEQ ID NO: 8, control peptide, cysteines 7 and 14 and their neighbouring residues converted into alanine]”: the “survival of tumor cells (tumor imaging)” value in data set [4] is “The survival of tumor cells was not suppressed”. The “inhibition of the dimer formation” value with C16orf74 protein dimer [1] (any of the cells (PK-1, PK-9, Panc-1, Miapaca-2, NHDFs)) is “no inhibition of the dimer formation was found”. The “course of tumor volume” value in the data set on PK-9 cells is “the tumor volume increased”. In addition, the “change over time in tumor fluorescence intensity” value in data set [2] is “exhibited increase in fluorescence intensity”.

Regarding “RRRRRRRRRRR-GGG-MGLKMSALKGFQMAV (RRRRRRRRRRRGGGMGLKMSALKGFQMAV; fusion peptide) [SEQ ID NO: 7, control peptide, cysteine residues at 7th and 14th positions converted into alanine]”, the “inhibition of the dimer formation” value is listed as “the inhibition was weaker than in using 11R-C16orf74-DB” in the data set with C16orf74 protein dimer [1] (PK-1 and PK-9 cells); “Almost no inhibition of the dimer formation was found” with C16orf74 protein dimer [1] (Panc1, Miapaca2 and NHDFs).
